Experimental data reported in patent US20240368183A1, “Macrocyclic Compounds Having ENT1 Inhibiting Activity” (iTeos Belgium SA, priority 2021, published 2024).
Like-named read-outs stand apart in the source and are kept apart here.

Tests used:
human ENT1 = target: T1, human ENT1 (Homo sapiens, UniProt Q99808); experiment: ENT1 binding assay (competition with Sahenta-DY647); details: JAR cells expressing ENT1; competition with Sahenta-DY647 (100 nM); 4° C.
T1 construct: JAR cells expressing ENT1 were bought from ATCC® (HTB-144TM); host or cells: JAR cells (human choriocarcinoma line, own knowledge)
T1 sequence (Q99808 1-456): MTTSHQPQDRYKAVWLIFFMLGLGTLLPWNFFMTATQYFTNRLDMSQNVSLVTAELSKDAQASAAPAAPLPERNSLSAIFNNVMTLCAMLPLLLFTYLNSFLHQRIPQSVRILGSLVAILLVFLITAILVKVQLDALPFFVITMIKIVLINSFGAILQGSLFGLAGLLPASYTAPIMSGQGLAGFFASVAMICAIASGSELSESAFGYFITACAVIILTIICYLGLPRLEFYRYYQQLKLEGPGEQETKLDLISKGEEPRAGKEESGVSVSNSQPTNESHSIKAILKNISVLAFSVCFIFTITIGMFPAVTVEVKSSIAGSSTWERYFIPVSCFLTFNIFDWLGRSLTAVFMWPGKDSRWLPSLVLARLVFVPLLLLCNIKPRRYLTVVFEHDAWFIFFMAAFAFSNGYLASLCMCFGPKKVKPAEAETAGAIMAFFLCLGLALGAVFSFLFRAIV
Description: The present assay aims at showing that the compounds of the present disclosure can bind to human ENT1. The principle of the assay is a competition between the compounds of this present disclosure and Sahenta-DY647, an ENT1 inhibitor that emits fluorescence (Ex=630 nm, Em=670 nm). By measuring the fluorescence at the end of the assay we could assess the binding potency of the compounds of the present disclosure.
JAR cells expressing ENT1 were bought from ATCC® (HTB-144TM). Cells were cultured in RPMI 1640 medium (LONZA®, #BE12-702F/U1) supplemented with 10% FBS (GIBCO®, #10270-106), 10 mM Hepes (LONZA®, #BE17-737E), 1 mM Sodium Pyruvate (LONZA®, #BE13-115E) and 2% Penicillin/Streptomycin (LONZA®, #DE17-603E) at 37° C. and 5% CO2. The assay was conducted on the following buffer: HBSS (LONZA®, #LO-527F) supplemented with 10 mM Hepes (LONZA®, #BE17-737E) and 0.1% BSA (Miltenyi®, #130-091-376) on the day of the assay.
JAR cells were resuspended in the described buffer. Compounds of the present disclosure and Sahenta-DY647 were diluted 200× in the described buffer.
A total of 50 000 cells were pre-incubated for 30 min at 4° C. with the compounds of the present disclosure before adding the corresponded IC90 of Sahenta-DY647 (100 nM) and incubate once more for 30 min at 4° C. The total volume of the reaction was 100 μL (50 μL of cells, 25 μL of the compounds of the present disclosure and 25 μL of Sahenta-DY647) in a 96 well plate, U-bottom (Greiner®, #650-180). The plates were washed 2× by centrifugation (4 min, 400 rcf at 4° C.) in the same buffer. Cells were re-suspended in 70 μL of the buffer and 50 μL was transferred to a Black 384 Optiplate (PerkinElmer®, #6007279). Fluorescence (Ex=630 nm, Em=670 nm) was acquired on a Spectramax i3x (Molecular Devices®).

[1] = tested on: stimulated primary human T cells; experiment: T cell proliferation assay (rescue of proliferation in the presence of ATP); format: cell-based
Description: The aim of this study was to determine the potency of equilibrative nucleoside transporter 1 (ENT1) inhibitors to rescue proliferation by stimulated primary human T cells incubated in the presence of 100 uM Adenosine triphosphate (ATP), in baseline conditions (condition A) or in the presence of various proteins known to bind small molecules (condition B)
Condition B: X-VIVO15, 2% Human Serum Albumine (HSA) and 0.1% α-1-Acid Glycoprotein (AAG)
Cryopreserved purified human CD3+ T cells were thawed and washed twice with RPMI1640 medium, UltraGlutamine containing 10% hiFBS.
Cells were suspended in PBS containing 10% hiFBS. Cells were stained with CFSE by adding 2 μM solution in PBS, to get a final 1 μM CFSE solution. Cells were incubated while rotating for 5 minutes. Reaction was stopped by adding PBS with 10% FBS and cells were centrifuged for 5 minutes at 1500 rpm.
Cells were resuspended at 1.6×10^6 cells/mL, either in X-VIVO15 medium or in 4% Human Serum Albumin and 0.2% α-1-Acid Glycoprotein. 50 μL of cell suspension (8×10^4 T cells) was added to wells of sterile round-bottom 96-well plates. Cells were activated by adding 50 μL of anti-CD3 anti-CD28 coated microbeads, suspended either in XVIVO-15 medium or in 4% HSA and 0.2% α-1-Acid Glycoprotein, at a ratio of one microbead per two cells.
Serial dilutions of the ENT1 inhibitors were prepared in X-VIVO15 from 10 mM stock solutions in DMSO, and 50 μL was added to the wells.
ATP powder was diluted in X-VIVO15, and 50 μL of this compound was added to the wells to reach a final assay concentration of 100 μM. Final volume of 200 μL.
The experiments were also performed in 384 well plates—all volumes reduced by a factor of 4 (12.5 μL) with a final volume of 50 μL.
Experiments were performed in duplicate. The cells were placed in a 37° C. humidified tissue culture incubator with 5% CO2 for 72 hours for 96 well plates, 96 hours for 384 well plates After 72 or 96 hours, proliferation was measured determined by CFSE dilution via flow cytometry.

[2] = Condition B: X-VIVO15, 2% Human Serum Albumine (HSA) and 0.1% α-1-Acid Glycoprotein (AAG), 100 μM ATP, read-out: (2) T Cell proliferation (Condition B) IC50
[3] = Homo sapiens, Condition A: X-VIVO15, 100 μM ATP, read-out: T Cell proliferation (Condition A) IC50

| SMILES | IC50 (human ENT1) [nM] | IC50 [1, 2] [nM] | IC50 [1, 3] [nM] |
| --- | --- | --- | --- |
| COc1cc2cc(c1OC)OCCCC(n1cc(-c3ccccc3)cn1)CCN1CCCN(CCCOC2=O)CC1 (stereo not drawn) [Compound 29] | 1 to 20 | 20 to 500 | < 1 |
| COc1cc2cc(c1OC)OCCCC(OC(=O)NCC(=O)N1CCOCC1)CCN1CCCN(CCCNC2=O)CC1 (stereo not drawn) [Compound 40] | 20 to 500 | 20 to 500 | 20 to 500 |
| COc1cc(C(=O)OC2CCCOc3cc(cc(OC)c3OC)COCCN(C)C3CCN(CC2)CC3)cc(OC)c1OC (stereo not drawn) [Compound 41] | 1 to 20 | 20 to 500 | < 1 |
| COc1cc(C(=O)OC2CCCOc3cc(cc(OC)c3OC)CCCCS(=O)(=O)N3CCCN(CC2)CC3)cc(OC)c1OC (stereo not drawn) [Compound 47] | 1 to 20 | 1 to 20 | < 1 |

More lines, main results first:

| IC50 (human ENT1) [nM] | SMILES | IC50 [1, 2] [nM] | IC50 [1, 3] [nM] |
| --- | --- | --- | --- |
| 1 to 20 | COc1cc(C(=O)OC2CCCOc3cc(cc(OC)c3OC)C(=O)NCCCN3CCN(CC2)CC3=O)cc(OC)c1OC (stereo not drawn) [Compound 30] | 20 to 500 | < 1 |
| 20 to 500 | COc1cc(C(=O)OC2CCCOc3cc(cc(Cl)c3Cl)C(=O)NCCCN3CCCN(CC2)CC3)cc(OC)c1OC (stereo not drawn) [Compound 33] | > 500 | 1 to 20 |
| 1 to 20 | COc1cc(C(=O)OC2CCCOc3cc(cc(OC)c3OC)-c3cn(nn3)CCCN3CCCN(CC2)CC3)cc(OC)c1OC (stereo not drawn) [Compound 37] | 20 to 500 | < 1 |
| 1 to 20 | COc1cc(C(=O)OC2CCCOc3cc(cc(OC)c3OC)COCCC3CCN(CC3)CC2)cc(OC)c1OC (stereo not drawn) [Compound 42] | 20 to 500 | < 1 |
| 1 to 20 | COc1cc(C(=O)OC2CCCOc3cc(cc(OC)c3OC)COCCOCCN(C)CC2)cc(OC)c1OC (stereo not drawn) [Compound 43] | 20 to 500 | < 1 |
| 1 to 20 | COc1cc(C(=O)OC2CCCOc3cc(cc(OC)c3OC)COCCN3CCCN(CC2)CC3)cc(OC)c1OC (stereo not drawn) [Compound 44] | 20 to 500 | < 0.1 |
